Like-named read-outs stand apart in the source and are kept apart here.
Key:
DYRK1A(h) = target: T1, DYRK1A(h) (Homo sapiens, UniProt Q13627); assay: In vitro enzymatic assay (Eurofins, radiometric 33P-ATP); type: biochemical; settings: for inhibition at 10 µM / % inhibition at 10 μM: DYRK1A; for IC50: read-out: IC50 values against DYRK1A
T1 construct: purchased Eurofins Scientific Inc. Korea (contract assay service)
Experimental: Enzymatic assays were performed by Eurofins Scientific Inc. Korea (Brussels, Belgium). […] The reaction was initiated by the addition of the MgATP mix. After incubation for 40 min at room temperature, the reaction was stopped by the addition of 3% phosphoric acid solution. Then, 10 μL of the reaction was then spotted onto a P30 filtermat and washed three times for 5 min in 75 mM phosphoric acid and once in methanol prior to drying and scintillation counting. […] All assays were performed in duplicate, and the average IC50 value was reported.

DYRK1A = test system: DYRK1A; set-up: method as in PMID 30170319; settings: staurosporine; read-out: IC50 against DYRK1A; cited from earlier work
GSK3β = settings: read-out: IC50 against GSK3β, cited from earlier work
[1] = as summarised in the discussion

SMILES | inhibition at 10 µM (DYRK1A(h)) [%] | IC50 (DYRK1A(h); duplicate, average) [µM] | also measured
N#Cc1ccc2[nH]c(O)c(-c3ccc(CN4CCOCC4)cn3)c2c1 [AZD1080, 2-hydroxy-3-(5-(morpholinomethyl)pyridin-2-yl)-1H-indole-5-carbonitrile, reference compound] | 71 | 2.91 | IC50 (GSK3β; AZD1080): 0.031 µM
CC(C)c1nn(C)cc1-c1nc2c(N3CCN(Cc4cccnc4)CC3)c(Br)cnc2[nH]1 [Compound 1, 6-bromo-2-(3-isopropyl-1-methyl-1H-pyrazol-4-yl)-7-(4-(pyridin-3-ylmethyl)piperazin-1-yl)-3H-imidazo(4,5-b)pyridine] | 70 | 6.77 | 
COC(=O)c1sc2ncnc(Nc3cccc(OC)c3)c2c1C [Compound 2, methyl 4-((3-methoxyphenyl)amino)-5-methylthieno (2,3-d)pyrimidine-6-carboxylate] | 58 | 5.71 | 

Now from value to compound, other results behind:

inhibition at 10 µM (DYRK1A(h)) [%] | IC50 (DYRK1A(h); duplicate, average) [µM] | SMILES | also measured
82 | 3.25 | O=C(O)c1cc2cc(Br)ccc2s1 [Compound 3, 5-bromobenzo[b]thiophene-2-carboxylic acid] | IC50 (DYRK1A(h); [1]): ~3.2 µM
< 40 |  | COc1ccc(Nc2cc(C)nc(Nc3ccc(OC)cc3)n2)cc1 [Compound 5, N^2,N^4-bis(4-methoxyphenyl)-6-methylpyrimidine-2,4-diamine] | % inhibition at 10 μM (DYRK1A(h)): 27%
76 | 5.83 | O=C(O)c1cccc(Nc2nc(-c3ccccc3)c3cc(Br)ccc3n2)c1 [Compound 6, 3-((6-bromo-4-phenylquinazolin-2-yl)amino)benzoic acid] | 
< 40 |  | COc1ccc(Nc2ncc(F)c(N3CCOCC3)n2)cc1 [Compound 7, 5-fluoro-N-(4-methoxyphenyl)-4-morpholinopyrimidin-2-amine] | % inhibition at 10 μM (DYRK1A(h)): 33%
71 | 3.24 | N#Cc1cccc2sc(C(=O)O)cc12 [Compound 4, 4-cyanobenzo[b]thiophene-2-carboxylic acid] | IC50 (DYRK1A(h); [1]): ~3.2 µM

— PMC7554884, “Small Molecule Inhibitors of DYRK1A Identified by Computational and Experimental Approaches” (International Journal of Molecular Sciences, 2020)
